Reference: patent US8735178B2, “Withanolides, probes and binding targets and methods of use thereof” (University of Kentucky Research Foundation, priority 2006, dated 2014)

Experiments:
[1] = target: soluble hamster vimentin (Mesocricetus auratus, UniProt P02544); assay: In vitro ligand binding assay (WFA-B labelling, streptavidin-HRP blot); settings: competitor 1 hour, then 0.3 or 1 μM WFA-B 1 hour
From the text: The proteins were fractionated by SDS-PAGE, blotted and biotinylated adduct was detected by streptaviding-HRP with chemiluminescence.

[2] = target: T1, tetrameric soluble hamster vimentin (Mesocricetus auratus, UniProt P02544); assay: In vitro vimentin filament polymerization (transmission electron microscopy); format: biochemical; settings: 25 μM, 170 mM NaCl, 1 hour at 37° C.
T1 construct: purchased Vimentin Filament Biochemistry Kit, Denver, Colo; Cytoskeleton is named
Description: FIG. 3a depicts tetrameric soluble hamster vimentin polymerized in the presence of 170 mM NaCl by incubation at 37° C. for 1 hour. The protein was fixed with 0.5% glutaraldehyde, stained with uranyl acetate and observed by transmission electron microscopy.
Tetrameric hamster vimentin was subjected to in vitro filament formation assays using vendor-supplied reagents and instructions (Vimentin Filament Biochemistry Kit, Denver, Colo.). Vimentin (0.5 mg/ml) was mixed with WFA (5 μM or 25 μM), DMSO or 12D-WS (25 μM) in filament polymerization buffer (170 mM NaCl final concentration) and incubated for 1 hour at 37° C. Protein was immediately fixed in 0.5% glutarldehyde and stained with uranyl acetate and applied to copper grids for EM staining (University of Kentucky Core Microscopy and Imaging Facilities). Over 100 grids for each treatment were viewed at 80 kV on a FEI Biotwin 12 transmission electron microscope and 25 representative images were collected. The experiment was repeated in entirety.

[3] = target: bovine 20S proteasome (Bos taurus, UniProt Q32KL2); assay: 20S proteasome enzyme kinetic assay (chymotrypsin-like activity, Suc-LLVY-AMC); format: biochemical
Description: The chymotrypsin-like activity was assayed using the fluorogenic peptide substrates Suc-Leu-Leu-Val-Tyr-AMC (Sigma-Aldrich). […] Fluorescence was quantified as arbitrary units and progression curves were plotted for each reaction as a function of time. kobserved/[I] values were obtained using PRISM program by nonlinear least squares fit of the data to the following equation: fluorescence=vst+[(v0−vs)/kobserved][1−exp(−kobserved t)], where v0 and vs are the initial and final velocities, respectively, and kobserved is the reaction rate constant. […] Reactions were performed using inhibitor concentrations that were <100-fold of those of the proteasome assayed.

[4] = tested on: embryonic fibroblast cell lines MFT-6 (Vim+/+) and MFT-16 (Vim−/−); assay: Apoptosis by flow cytometry (annexin V-FITC / propidium iodide); format: cell-based, mouse; settings: 5 μM, 24 hours
Description: Referring to FIG. 4c, embryonic fibroblast cell lines derived from vimentin-deficient mice and wild-type littermates were treated with vehicle or 5 μM WFA for 24 hours. Cells were harvested and stained with annexin V-FITC and propidium iodide and extent of apoptosis assessed by flow cytometry. The fold-apoptotis for drug over vehicle-treated samples for each cell line was plotted (n=2 experiments).
To assess the apoptosis activity of WFA, embryonic fibroblast vimentin-deficient cell lines (Vim^−/−; MFT-16) and wild-type (Vim^+/+; MFT-6) cells were treated with 5 μM WFA or an equivalent amount of vehicle (DMSO) for 24 hours at 37° C.-5% CO2 conditions in complete medium. Apoptotic cells were measured by using the VYBRANT™ Apoptosis Assay Kit (Molecular Probes) according to the manufacturer's instructions. Flow cytometric analysis was conducted at the University of Kentucky Core Flow Cytometry Center.

[5] = tested on: corneal neovascularization; assay: Injury-induced corneal neovascularization assay in mice; format: in vivo, mouse; settings: 2 mg/kg i.p. daily for 10 days
From the text: Since WFA exerts potent angiogenesis inhibitory activity in vivo, drug activity on de novo capillary growth in vimentin deficiency was investigated.
Vimentin homozygous-deficient mice (vim^−/−) and vimentin-heterozygous-deficient mice (vim^+/−) in the 129/Svev background were obtained from David Markovitz (University of Michigan Medical Center) and breeding colonies established at the University of Kentucky. All mice were housed in specific pathogen-free cages in designated lab animal housing facilities. Age-matched littermates were genotyped by polymerase chain reaction, as described, and vim^−/− and vim^+/+ mice were employed for corneal vascularization experiments. In brief, mice between 4-6 weeks of age were anesthetized by intraperiteoneal injection (i.p.) of ketamine and xylazine. Corneas were topically anesthetized by application of proparacain drop and 1 microliter drop of dilute 0.1 M sodium hydroxide was applied for 1 minute. […] Upon recovery from anesthesia, mice were replaced in cages and monitored by trained personnel for resumption of normal activity. […] Fluorescence was quantified by importing images in NIH ImageJ, as taught by Ambati, B. K. et al., Sustained inhibition of corneal neovascularization by genetic ablation of CCR5, Invest. […]

[6] = tested on: vimentin in HUVECs; assay: Western blot of soluble vimentin in WFA-treated HUVECs; format: cell-based, human
Description: (§1) BAECs treated with DMSO (FIGS. 3e, 3g, 3i) or 3 μM WFA (FIGS. 3f, 3h, 3j) for 18 hours were stained for vimentin using a monoclonal anti-vimentin antibody (green) and co-stained with phalloidin-rhodamine (red). The vimentin (FIGS. 3e, 3f) and phalloidin-stained images (FIGS. 3g, 3h), in fluorescence overlap, reveal the presence of numerous cytoplasmic particulate granules that co-stain for vimentin and disrupted F-actin in WFA-treated cells compared to controls (FIGS. 3i, 3j). […] FIG. 3l depicts higher concentrations and longer periods of exposure to WFA (4 hours) cause reduction in levels of the 56 kDa protein (asterisk) and increased abundance of cleavage products of vimentin (arrows).
As it became apparent that vimentin targeting by WFA may initiate signaling events leading to cellular apoptosis, the effect of WFA on soluble tetrameric vimentin was investigated. Using western blot analysis of soluble proteins from HUVECs treated with WFA, dose-dependent (above 2 μM) increases in vimentin cleavage products became detectable by 2 hours after drug treatment (FIGS. 3k and 3l).
After treatments, cells were washed in PBS and extracts having equal amounts of proteins were subjected to SDS-PAGE on 4-20% Tris-glycine gels (BioEpress) and transferred to Immun-Blot PVDF membrane (Bio-Rad) using standard techniques. […]

[7] = tested on: MCF-7 cells transfected with human vimentin cDNA; assay: Polyubiquitinated proteins in vimentin-transfected MCF-7 cells (anti-ubiquitin blot); format: cell-based; settings: 2 μM, not in vector controls
Description: Employing the widely used MCF-7 vimentin-deficient model of Bar, H. et al., Forced expression of desmin and desmin mutants in cultured cells: impact of myopathic missense mutations in the central coiled-coil domain on network formation, Exp. Cell. […] MCF-7 cells that lack endogenous IF proteins were transfected with human vimentin cDNA or a vector control and after 24 hours cells were treated with either vehicle or 2 μM WFA for 1 hour. Cell lysates were prepared and equal amounts of protein subjected to SDS-PAGE and protein blots probed with anti-ubiquitin antibody. Blots were re-probed with anti-GAPDH antibody.
MCF-7 cells were transfected with a pCMV6-XL5 vector containing the human vimentin cDNA under CMV promoter according to vendor instructions (Origene). Control samples were transfected with an empty vector (PCMV6-XL4). Transfected cells were allowed to recover for 12 hours and subsequently treated with 2 μM WFA for 18 hours. Equal amounts of protein lysates were then subjected to western blotting and probed with mouse monoclonal antibody against ubiquitin proteins.

[8] = tested on: BAECs; assay: Immunostaining of vimentin and actin in BAECs; format: cell-based, bovine; settings: 3 μM, 18 hours
Description: as §1
To further corroborate that vimentin aggregation by WFA treatment is associated with perturbation of the cytoskeleton structure, the drug effects in BAECs were investigated by immunostaining. […] Importantly, these vimentin particulates strongly co-stain for actin (compare FIG. 3h with FIG. 3j), exemplifying the role of the WFA-binding domain in control of cytoskeletal structure through the actin-binding activity of vimentin 2B domain.
After treatments, BAECs were washed with PBS and fixed with 4% paraformaldehyde for 5 minutes. Cells were then permeabilized with 0.1% Triton-X in PBS for 20 minutes at 4° C. and blocked for 30 minutes in 3% BSA to prevent nonspecific binding. […]

[9] = target: purified hamster vimentin (Mesocricetus auratus, UniProt P02544); assay: LC-MS/MS mapping of the residue covalently modified by WFA; format: binding; settings: tryptic digestion, molecular mass shift of 470
Description: Next, to identify the amino acid residue(s) of vimentin covalently modified by WFA, purified hamster vimentin was incubated with WFA and the protein-ligand complexes subjected to tryptic digestion and LC-MS/MS analysis. […] A three-dimensional model of the WFA-vimentin complex was developed using x-ray crystal structures of vimentin and WFA. […] In this simulated model, the C3 and C6 carbons of WFA lie in close proximity to the cysteine residue in the vimentin A-helix (FIG. 2b), permitting a nucleophilic attack by this thiol group on the electrophilic carbon centers (FIG. 2c). Remarkably, the amino acid residues of vimentin (Gln324, Cys328 and Asp 331) that make contact with WFA (FIG. 2c) are identical from fish to mammals, as shown in the table below.

[10] = target: T2, 56 kDa protein (vimentin) in HUVECs (Homo sapiens, UniProt P08670); assay: WFA-B labelling of proteins in HUVECs (streptavidin-HRP blot); format: binding; settings: WFA-B 2 hours, WFA-competitive
T2 construct: host or cells: HUVECs
Description: LC-MS/MS characterization of this protein identified the 56 kDa protein as vimentin (27% protein coverage), an IF protein that is abundant in mesenchymal cells. To further support that vimentin is bound by WFA-B in vivo, HUVECs were treated with WFA-B in the presence and absence of unconjugated WFA, and total cellular lysates were gel-fractionated and protein blots probed with streptavidin-HRP. […] This experiment was conducted using cells preincubated with DMSO or WFA for 30 minutes and subsequently with WFA-B for 2 hours. Soluble proteins extracted in 1% Triton X-100 were fractionated by SDS-PAGE and blotted. This blot, as well as those of FIGS. 1d and 1e, were developed with Streptavidin-HRP. Biotin label is incorporated in this 56 kDa protein in a WFA-competitive manner.
As shown in the blot of FIG. 1d, WFA-B binds vimentin in HUVECs. The blot of FIG. 1d was produced using cell cultures preincubated with DMSO (Veh) or with 5 μM WFA or 1 μM (WFA*) for 30 minutes and subsequently with 5 μM WFA-B for 2 hours.

Chain of soluble hamster vimentin (P02544 whole entry): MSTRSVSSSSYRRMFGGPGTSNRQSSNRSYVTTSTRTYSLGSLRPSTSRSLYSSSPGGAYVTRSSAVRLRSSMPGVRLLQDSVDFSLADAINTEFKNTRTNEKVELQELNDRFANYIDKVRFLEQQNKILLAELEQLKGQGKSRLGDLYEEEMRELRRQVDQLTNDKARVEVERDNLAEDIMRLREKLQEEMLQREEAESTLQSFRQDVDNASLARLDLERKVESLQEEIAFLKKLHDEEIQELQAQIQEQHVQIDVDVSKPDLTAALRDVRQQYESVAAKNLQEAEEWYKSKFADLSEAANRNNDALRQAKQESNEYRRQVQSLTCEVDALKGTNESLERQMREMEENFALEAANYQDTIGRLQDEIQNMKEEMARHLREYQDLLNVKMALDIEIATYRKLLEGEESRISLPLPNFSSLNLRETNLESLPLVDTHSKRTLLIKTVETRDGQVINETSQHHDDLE
T1 sequence (P02544 2-465 limits assumed): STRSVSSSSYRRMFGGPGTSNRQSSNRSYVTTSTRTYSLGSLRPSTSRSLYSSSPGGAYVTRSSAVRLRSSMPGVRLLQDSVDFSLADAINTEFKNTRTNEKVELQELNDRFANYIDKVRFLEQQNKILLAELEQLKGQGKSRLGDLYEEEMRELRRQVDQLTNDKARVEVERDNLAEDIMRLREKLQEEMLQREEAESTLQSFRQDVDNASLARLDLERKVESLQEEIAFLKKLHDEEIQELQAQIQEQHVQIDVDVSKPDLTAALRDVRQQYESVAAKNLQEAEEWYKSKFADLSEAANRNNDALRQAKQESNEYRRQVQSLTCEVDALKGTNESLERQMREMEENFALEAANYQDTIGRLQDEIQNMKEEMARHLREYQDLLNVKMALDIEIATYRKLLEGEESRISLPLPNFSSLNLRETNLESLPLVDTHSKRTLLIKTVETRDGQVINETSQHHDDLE
Chain of purified hamster vimentin (P02544 whole entry): as the sequence (P02544 whole entry) above
T2 sequence (P08670 whole entry): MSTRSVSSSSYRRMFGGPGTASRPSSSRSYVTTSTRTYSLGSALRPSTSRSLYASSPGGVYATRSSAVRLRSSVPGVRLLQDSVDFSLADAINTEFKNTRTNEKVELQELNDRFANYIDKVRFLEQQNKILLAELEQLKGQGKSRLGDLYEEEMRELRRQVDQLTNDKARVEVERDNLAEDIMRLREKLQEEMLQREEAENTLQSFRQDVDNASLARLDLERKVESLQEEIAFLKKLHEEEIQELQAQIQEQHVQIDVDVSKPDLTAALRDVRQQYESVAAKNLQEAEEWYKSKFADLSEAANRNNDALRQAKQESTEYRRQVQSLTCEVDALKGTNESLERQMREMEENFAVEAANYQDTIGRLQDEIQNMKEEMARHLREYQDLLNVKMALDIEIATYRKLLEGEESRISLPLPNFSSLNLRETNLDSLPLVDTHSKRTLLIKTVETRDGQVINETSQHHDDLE

| inhibition of the 20S proteasome's major catalytic function ([3]; 10 μM) | Kobs/[I], efficiency of inactivation ([3]; WFA 0.5-10 μM, epoxomicin 10-75 nM) [M^−1S^−1] | covalent modification of cysteine residue at position 327 [9] | Compound | in vitro binding to vimentin [1] | effect on vimentin polymerization [2] | rate of apoptosis, wild-type cells versus vimentin-deficient cells [4] [fold] | inhibition of neovascularization ([5]; vimentin-null mice, n=10, P=0.005) [%] | inhibition of neovascularization ([5]; wild-type mice, n=8, P=0.002) [%] | concentration giving dose-dependent increases in vimentin cleavage products ([6]; detectable by 2 hours) | levels of polyubiquitinated proteins [7] | vimentin filament phenotype [8] | effect on full-length vimentin isoforms (two-dimensional western blot) ([6]; data not shown) | binding to 56 kDa protein in cells [10] |
| --- | --- | --- | --- | --- | --- | --- | --- | --- | --- | --- | --- | --- | --- |
| – | – | – | CC1=C(CO)C(=O)O[C@@H]([C@@H](C)[C@H]2CC[C@H]3[C@@H]4[C@@H]5O[C@@H]5[C@@]5(O)CC=CC(=O)[C@]5(C)[C@H]4CC[C@]23C)C1 [12-D WS] | lack of in vitro binding activity | does not disrupt vimentin polymerization | – | – | – | – | – | – | – | – |
| minimally inhibits | 340±80 | uniquely modified by WFA | CC1=C(CO)C(=O)O[C@@H]([C@@H](C)[C@H]2CC[C@H]3[C@@H]4C[C@H]5O[C@]56[C@@H](O)C=CC(=O)[C@]6(C)[C@H]4CC[C@]23C)C1 [WFA, Withaferin A] | – | produces extensive filamentous aggregates | 7 | 29 | 73 | above 2 μM | increases levels of polyubiquitinated proteins | condensation of vimentin filaments around the perinuclear region | – | – |
| – | – | – | CC1=C(COC(=O)CNC(=O)CCCCCNC(=O)CCCCCNC(=O)CCCCC2SCC3NC(=O)NC32)C(=O)OC([C@@H](C)C2CCC3C4C[C@H]5O[C@]56C(O)C=CC(=O)[C@]6(C)C4CC[C@@]32C)C1 (stereo partly drawn) [WFA-B, WFA-Gly-LC-LC-biotin] | bound by WFA-B in a WFA-competitive manner | – | – | – | – | – | – | – | causes several full-length (˜53-56 kDa) isoforms of vimentin to disappear | binds to the 56 kDa protein in HUVECs |
